Measurements reported in patent US20090011013A1, “Tacrolimus Combination Products” (LIFECYCLE PHARMA A/S, priority 2005, published 2009).
Where two headings read alike, the source gives them in different places.

Assays:
[1] = cited from earlier work
[2] = test system: Canine Lung Allotransplantation; conditions: dogs, cited from earlier work
[3] = oral, cited from earlier work
[4] = three-way crossover pilot bioavailability study of Prograf and Neoral combinations vs. Prograf; assay type: in vivo, human
[5] = rats, cited from earlier work
[6] = cited from earlier work; remark: listed apart in the source

C=CC[C@@H]1/C=C(\C)C[C@H](C)C[C@H](OC)[C@H]2O[C@@](O)(C(=O)C(=O)N3CCCC[C@H]3C(=O)O[C@H](/C(C)=C/[C@@H]3CC[C@@H](O)[C@H](OC)C3)[C@H](C)[C@@H](O)CC1=O)[C@H](C)C[C@@H]2OC [Tacrolimus]
solubility in chloroform ([1]; chloroform): very soluble | solubility in ethanol ([1]; ethanol): freely soluble | solubility in methanol ([1]; methanol): very soluble | solubility in water ([1]; water): practically insoluble | blood concentration of tacrolimus, combination vs alone at same dose ([2]; group E vs group C): not significant higher | immunosuppressive effect ([2]; i.m. 0.03 mg/kg/day (suboptimal dose)): rejection | immunosuppressive effect ([2]; i.m. 0.1 mg/kg/day (optimal dose)): adequate immunosuppression | time to reach peak ([3]; most patients): ≤ 1 h | time to reach peak ([3]; some patients): ≥ 4 h | increase in tacrolimus bioavailability ([4]; tacrolimus and cyclosporine in a ratio of 1:20): above 100% | increase of bioavailability of tacrolimus ([4]; tacrolimus and cyclosporine in the ratio of 1:2): 30% | hepatic extraction ratio ([5]; calculated): 60% | intestinal extraction ([5]; calculated): 34% | bioavailability ([5]; intestinal administration): ~25% | bioavailability ([5]; intraportal administration (infusion over 1 hour)): about 40% | bioavailability ([6]; after oral administration): ≤ 20% | mean time-to-peak concentration (tmax) ([6]; oral, healthy subjects or kidney or liver transplanted patients): 1 to 2 h
